Key:
[1] = test system: SARS-CoV-2; test: Phase 2/3 study, Phase 2b Part: score of 12 COVID-19 symptoms per unit time; type: in vivo, human; settings: for Change from baseline up to 120 hours in total score of 12 COVID-19 symptoms per unit time: Adjusted mean value by covariance analysis (standard error) / Change from baseline up to 120 hours in total score of 12 COVID-19 symptoms per unit time: Difference of adjusted mean value from that of placebo group (standard error) / Change from baseline up to 120 hours in total score of 12 COVID-19 symptoms per unit time: Maximum value / Change from baseline up to 120 hours in total score of 12 COVID-19 symptoms per unit time: Mean value / Change from baseline up to 120 hours in total score of 12 COVID-19 symptoms per unit time: Median value / Change from baseline up to 120 hours in total score of 12 COVID-19 symptoms per unit time: Minimum value: mild/moderate patients, ITT1 population
Description: The primary endpoints of Phase 2b Part were the time-weighted average change in the total score of 12 COVID-19 symptoms per unit time from the start of the first administration (Day 1) to 120 hours (Day 6), and the change from baseline in SARS-CoV-2 virus titer on Day 4, in mild/moderate SARS-CoV-2-infected patients, and the clinical improvement and the antiviral effect of the active drug were confirmed.
The administration of the active drug is repeated oral administration once a day for 5 days. The 375/125 mg group received 375 mg on Day 1 as a loading dose and 125 mg on Days 2 to 5 as a maintenance dose. The 750/250 mg group received 750 mg on Day 1 as a loading dose and 250 mg on Days 2 to 5 as a maintenance dose.
The primary efficacy endpoints of Phase 2b Part for mild/moderate SARS-CoV-2-infected patients were the time-weighted average change in the total score of 12 COVID-19 symptoms per unit time from the start of the first administration (Day 1) to 120 hours (Day 6), and the change from baseline in SARS-CoV-2 virus titer on Day 4. The total score of 12 COVID-19 symptoms is the sum of the scores determined by evaluation in four grades (0: none, 1: mild, 2: moderate, 3: severe) in the subject daily records for each of the 12 COVID-19 symptoms (low energy and tiredness, muscle or body aches, headache, chills or shivering, feeling hot or feverish, stuffy and runny nose, sore throat, cough, shortness of breath (difficulty breathing), nausea, vomiting, diarrhea).
Pairwise comparison was performed between each active drug dose group and the placebo group. […] Pairwise comparison was performed between each active drug dose group and the placebo group.
The results of classifying the twelve COVID-19 symptoms shown in the above (2-a) into 5 types (acute symptoms, major clinical symptoms, respiratory symptoms, systemic symptoms, and gastrointestinal symptoms) and analyzing the same (ITT population) are shown in the following table. • Acute symptoms: sore throat, cough, feeling hot and feverish • Major clinical symptoms: stuffy and runny nose, sore throat, cough, chills or shivering, feeling hot or feverish • Respiratory symptoms: stuffy and runny nose, sore throat, cough, shortness of breath (difficulty breathing) • Systemic symptoms: low energy and tiredness, muscle or body aches, headache, chills or shivering, feeling hot or feverish • Gastrointestinal symptoms: nausea, vomiting, diarrhea

[2] = Phase 2/3 study: frequency of adverse events; type: in vivo, human; settings: for Adverse events leading to discontinuation of administration, causally related to the investigational new drug: recovering or recovered after discontinuation
[3] = ITT population, 750/250 mg group

For `Cn1cnc(Cn2c(=O)[nH]/c(=N\c3cc4cn(C)nc4cc3Cl)n(Cc3cc(F)c(F)cc3F)c2=O)n1` [(6E)-6-[(6-chloro-2-methyl-2H-indazol-5-yl)imino]-3-[(1-methyl-1H-1,2,4-triazol-3-yl)methyl]-1-[(2,4,5-trifluorophenyl)methyl]-1,3,5-triazinane-2,4-dione], the “Change from baseline up to 120 hours in sub-total score per unit time, gastrointestinal symptoms: Mean value” [1, 3] was −1.13, the “Change from baseline up to 120 hours in sub-total score per unit time, gastrointestinal symptoms: Median value” [1, 3] was −0.79 and the “Change from baseline up to 120 hours in sub-total score per unit time, gastrointestinal symptoms: Minimum value” [1, 3] was −5.78. The “Change from baseline up to 120 hours in sub-total score per unit time, major clinical symptoms: Adjusted mean value by covariance analysis (standard error)” value [1, 3] was −3.42 (0.14), the “Change from baseline up to 120 hours in sub-total score per unit time, major clinical symptoms: Difference of adjusted mean value from that of placebo group (standard error)” value [1, 3] was −0.42 (0.17) and the “Change from baseline up to 120 hours in sub-total score per unit time, major clinical symptoms: Maximum value” [1, 3] was 0.39. For the same compound, the “Change from baseline up to 120 hours in sub-total score per unit time, major clinical symptoms: Mean value” [1, 3] was −3.54, the “Change from baseline up to 120 hours in sub-total score per unit time, major clinical symptoms: Median value” [1, 3] was −3.42 and the “Change from baseline up to 120 hours in sub-total score per unit time, major clinical symptoms: Minimum value” [1, 3] was −10.11. For the same compound, the “Change from baseline up to 120 hours in sub-total score per unit time, respiratory symptoms: Adjusted mean value by covariance analysis (standard error)” value [1, 3] was −2.16 (0.12), the “Change from baseline up to 120 hours in sub-total score per unit time, respiratory symptoms: Difference of adjusted mean value from that of placebo group (standard error)” value [1, 3] was −0.44 (0.15) and the “Change from baseline up to 120 hours in sub-total score per unit time, respiratory symptoms: Maximum value” [1, 3] was 2.29. The “Change from baseline up to 120 hours in sub-total score per unit time, respiratory symptoms: Mean value” [1, 3] was −2.33, the “Change from baseline up to 120 hours in sub-total score per unit time, respiratory symptoms: Median value” [1, 3] was −2.30 and the “Change from baseline up to 120 hours in sub-total score per unit time, respiratory symptoms: Minimum value” [1, 3] was −6.34. The “Change from baseline up to 120 hours in sub-total score per unit time, systemic symptoms: Adjusted mean value by covariance analysis (standard error)” value [1, 3] was −3.16 (0.14), the “Change from baseline up to 120 hours in sub-total score per unit time, systemic symptoms: Difference of adjusted mean value from that of placebo group (standard error)” value [1, 3] was 0.30 (0.17) and the “Change from baseline up to 120 hours in sub-total score per unit time, systemic symptoms: Maximum value” [1, 3] was 2.71. The “Change from baseline up to 120 hours in sub-total score per unit time, systemic symptoms: Mean value” [1, 3] was −3.19, the “Change from baseline up to 120 hours in sub-total score per unit time, systemic symptoms: Median value” [1, 3] was −2.81 and the “Change from baseline up to 120 hours in sub-total score per unit time, systemic symptoms: Minimum value” [1, 3] was −9.66. For the same compound, the “Change from baseline up to 120 hours in total score of 12 COVID-19 symptoms per unit time: Adjusted mean value by covariance analysis (standard error)” value ([1]; 375/125 mg group) was −5.37 (0.24), the “Change from baseline up to 120 hours in total score of 12 COVID-19 symptoms per unit time: Difference of adjusted mean value from that of placebo group (standard error)” value ([1]; 375/125 mg group) was −0.24 (0.30) and the “Change from baseline up to 120 hours in total score of 12 COVID-19 symptoms per unit time: Maximum value” ([1]; 375/125 mg group) was 2.43. For the same compound, the “Change from baseline up to 120 hours in total score of 12 COVID-19 symptoms per unit time: Mean value” ([1]; 375/125 mg group) was −5.95, the “Change from baseline up to 120 hours in total score of 12 COVID-19 symptoms per unit time: Median value” ([1]; 375/125 mg group) was −5.40 and the “Change from baseline up to 120 hours in total score of 12 COVID-19 symptoms per unit time: Minimum value” ([1]; 375/125 mg group) was −20.37. The “Change from baseline up to 120 hours in total score of 12 COVID-19 symptoms per unit time: Adjusted mean value by covariance analysis (standard error)” value ([1]; 750/250 mg group) was −5.17 (0.23), the “Change from baseline up to 120 hours in total score of 12 COVID-19 symptoms per unit time: Difference of adjusted mean value from that of placebo group (standard error)” value ([1]; 750/250 mg group) was −0.04 (0.29) and the “Change from baseline up to 120 hours in total score of 12 COVID-19 symptoms per unit time: Maximum value” ([1]; 750/250 mg group) was 2.47. The “Change from baseline up to 120 hours in total score of 12 COVID-19 symptoms per unit time: Mean value” ([1]; 750/250 mg group) was −5.42, the “Change from baseline up to 120 hours in total score of 12 COVID-19 symptoms per unit time: Median value” ([1]; 750/250 mg group) was −4.92 and the “Change from baseline up to 120 hours in total score of 12 COVID-19 symptoms per unit time: Minimum value” ([1]; 750/250 mg group) was −18.16. The “Adverse events leading to deaths” value ([2]; Phase 2a Part) was “no adverse events leading to deaths”, the “Deaths, serious adverse events, adverse events leading to discontinuation of administration” value ([2]; Phase 2a Part) was “no deaths, serious adverse events, or adverse events leading to discontinuation of administration” and the “Adverse events leading to the discontinuation of administration” value ([2]; Phase 2a Part, 375/125 mg group, both causally related to the investigational new drug) was “Two adverse events leading to the discontinuation of administration were observed”. For the same compound, the serious adverse events ([2]; Phase 2a Part, active drug group) was “not in the active drug group”, the “Adverse events leading to deaths” value ([2]; Phase 3 Part) was “no adverse events leading to deaths” and the Serious adverse event ([2]; Phase 3 Part, 375/125 mg group, no causal relationship with the investigational new drug) was “observed in one case”. For the same compound, the “Adverse events leading to discontinuation of administration, causally related to the investigational new drug” value ([2]; Phase 3 Part, 375/125 mg group) was “eczema and emesis” and the “Adverse events leading to discontinuation of administration, causally related to the investigational new drug” value ([2]; Phase 3 Part, 750/250 mg group) was “rash (2 cases)”.
